According to US20220348590A1, “CYCLOOXYGENASE-2 INHIBITORS AND USES THEREOF” (The Board Institute, Inc., priority 2019, published 2022):
Where two headings read alike, the source gives them in different places.

Target: T1, human recombinant COX2 (hCOX2) (UniProt P35354)
T1 sequence (P35354 1-604): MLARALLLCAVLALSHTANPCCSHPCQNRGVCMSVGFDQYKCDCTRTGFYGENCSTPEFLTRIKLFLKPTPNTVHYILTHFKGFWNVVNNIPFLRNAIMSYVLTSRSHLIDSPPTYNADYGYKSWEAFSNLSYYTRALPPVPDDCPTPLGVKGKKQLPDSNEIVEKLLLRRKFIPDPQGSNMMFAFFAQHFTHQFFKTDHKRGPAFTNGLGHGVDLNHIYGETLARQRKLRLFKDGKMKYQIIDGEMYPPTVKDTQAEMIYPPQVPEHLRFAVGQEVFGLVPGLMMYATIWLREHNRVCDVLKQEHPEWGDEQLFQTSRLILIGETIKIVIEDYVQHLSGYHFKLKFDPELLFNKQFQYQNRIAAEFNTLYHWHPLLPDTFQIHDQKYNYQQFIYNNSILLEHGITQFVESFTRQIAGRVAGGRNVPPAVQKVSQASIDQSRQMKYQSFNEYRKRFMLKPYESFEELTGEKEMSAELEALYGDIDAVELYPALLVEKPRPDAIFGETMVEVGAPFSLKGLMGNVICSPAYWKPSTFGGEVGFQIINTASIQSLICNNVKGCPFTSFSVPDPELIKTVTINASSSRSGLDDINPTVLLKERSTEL
Assay: LCMS-based COX2 enzymatic inhibition assay (PGE2 quantification)
Assay type: biochemical
Parameters: COX2 2 minutes pge2/pge2d4 area ratio Avg; other: 2 minutes; readout pge2/pge2d4 area ratio; average; COX2 2 minutes pge2/pge2d4 area ratio Avg; LLE; average LLE; COX2 2 minutes pge2 area (counts) Avg; readout pge2 area (counts); other: 2 min; "ovine COX2 (oCOX2), human recombinant COX2 (hCOX2)"
Details: for COX2 2 minutes pge2/pge2d4 area ratio Avg. LLE / COX2 2 minutes pge2 area (counts) Avg. LLE / COX2 10 minutes pge2 area (counts) Avg. LLE: average LLE; for IC50: average
Summary of the method: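 PGE2 formed from arachidonic acid (final 5 μM, 2 min) was measured by LC-MS-MS against DMSO controls. Enzyme (oCOX-1 0.1 μg or hCOX2 0.2 μg) with hematin/epinephrine cofactors at pH 8.0 was given 10 min at 37 °C with compound first. Twelve-point curves run three times gave IC50.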

[1] = 2 minutes, readout pge2/pge2d4 area ratio
[2] = 2 minutes, readout pge2/pge2d4 area ratio, read-out: COX2 2 minutes pge2/pge2d4 area ratio Avg. IC50
[3] = 2 minutes, readout pge2 area (counts)
[4] = 2 minutes, readout pge2 area (counts), read-out: COX2 2 minutes pge2 area (counts) Avg. IC50
[5] = read-out: COX2 2 minutes pge2/pge2d4 area ratio Avg. IC50 (microM), 2 minutes, readout pge2/pge2d4 area ratio
[6] = 10 minutes, readout pge2 area (counts)
[7] = 10 minutes, readout pge2 area (counts), read-out: COX2 10 minutes pge2 area (counts) Avg. IC50

SMILES | COX2 2 minutes pge2/pge2d4 area ratio Avg. LLE [1] | IC50 [2] [µM] | COX2 2 minutes pge2 area (counts) Avg. LLE [3] | IC50 [4] [µM] | IC50 [5] [µM] | COX2 10 minutes pge2 area (counts) Avg. LLE [6] | IC50 [7] [µM]
CS(=O)(=O)c1ccc(-c2cncc(SC[C@@H]3CCCO3)n2)cc1 (single isomer, unassigned) [Compound 186] | 4.315 | 0.627 | 4.316 | 0.616 |  |  | 
CS(=O)(=O)c1ccc(-c2cncc(N3CCc4ccccc4C3)n2)cc1 [Compound 324] |  |  |  |  | 5.2 |  | 
CS(=O)(=O)c1ccc(-c2cncc(NCc3ccoc3)n2)cc1 [Compound 110] | 5.411 | 0.0984 | 5.451 | 0.0934 |  |  | 
COc1ncc(-c2ccc(S(C)(=O)=O)cc2)nc1NCc1ccccn1 [Compound 260] | 4.221 | 4.26 | 4.307 | 2.35 |  |  | 
CS(=O)(=O)c1ccc(-c2cccc(Oc3ccccc3)n2)cc1 [Compound 70] |  | 0.0406 |  | 0.0465 |  |  | 
Cc1ccc(COc2cncc(-c3ccc(S(C)(=O)=O)cc3)n2)cc1 [Compound 309] |  |  | 2.514 |  | 5.2 |  | 
CS(=O)(=O)c1ccc(-c2cncc(OC[C@H]3CCCS3)n2)cc1 (single isomer, unassigned) [Compound 198] | 4.116 | 0.964 | 4.04 | 1.23 |  |  | 
CS(=O)(=O)c1ccc(-c2ncc3ncn(Cc4cccs4)c3n2)cc1 [Compound 164] | 2.595 | 0.411 | 2.638 | 0.368 |  | 3.534 | 0.0503
CS(=O)(=O)c1ccc(-c2cncc(/C=C/c3cccs3)n2)cc1 [Compound 223] | 2.992 | 1.86 | 2.918 | 2.24 |  |  | 
COc1ncc(NCc2ncco2)nc1-c1ccc(S(C)(=O)=O)cc1 [Compound 236] | 4.092 | 2.54 | 4.092 | 2.5 |  |  | 
CS(=O)(=O)c1ccc(-c2cnc(N)c(OCc3cccs3)n2)cc1 [Compound 86] | 5.134 | 0.061 | 5.087 | 0.0682 |  |  | 
Cn1ccc(COc2cncc(-c3ccc(S(C)(=O)=O)cc3)n2)n1 [Compound 181] | 5.19 | 0.559 | 5.2357 | 0.525 |  |  | 
CS(=O)(=O)c1ccc(-c2cccc(C[C@@H](O)c3cccs3)n2)cc1 [Compound 292] | 2.424 | 5.2 |  |  |  |  | 
CS(=O)(=O)c1ccc(-c2cccc(OCc3ccc(Cl)s3)n2)cc1 [Compound 69] | 2.722 | 0.0406 | 2.834 | 0.0288 |  |  | 
CS(=O)(=O)c1ccc(-c2nc(NCc3cccs3)cnc2C#N)cc1 [Compound 159] | 4.781 | 0.361 | 4.751 | 0.381 |  |  | 
C[C@@H](Nc1cncc(-c2ccc(S(C)(=O)=O)cc2)n1)c1cccs1 [Compound 173] | 3.7158 | 0.452 | 3.9817 | 0.326 |  | 4.808 | 0.0384
CS(=O)(=O)c1ccc(-c2cccc(/C=C/c3ccoc3)n2)cc1 [Compound 247] | 1.819 | 3.36 | 1.724 |  |  |  | 
CS(=O)(=O)c1ccc(-c2cccc(NCc3cnco3)n2)cc1 [Compound 216] | 3.544 | 1.54 | 3.646 | 1.22 |  |  | 
COc1cncc(-c2ccc(S(C)(=O)=O)cc2)n1 [Compound 299] |  |  |  |  | 5.2 | 5.551 | 0.489

SMILES | COX2 2 minutes pge2/pge2d4 area ratio Avg. LLE [1] | IC50 [2] [µM] | COX2 2 minutes pge2 area (counts) Avg. LLE [3] | IC50 [4] [µM] | IC50 [5] [µM] | COX2 10 minutes pge2 area (counts) Avg. LLE [6] | IC50 [7] [µM]
CS(=O)(=O)c1ccc(-n2ccc3ccc([C@@H](O)c4cccs4)nc32)cc1 (single isomer, unassigned) [Compound 209] |  | 1.34 |  | 1.44 |  |  | 
CS(=O)(=O)c1ccc(-c2cncc(N3Cc4cccnc4C3)n2)cc1 [Compound 328] |  |  | 4.414 |  | 5.2 |  | 
COc1ccc(-c2ccc(S(C)(=O)=O)nc2)nc1NCc1cccs1 [Compound 158] | 3.956 | 0.359 | 3.972 | 0.349 |  |  | 
Cc1ncc(NCc2cccs2)nc1-c1ccc(S(C)(=O)=O)cc1 [Compound 103] | 4.751 | 0.0888 | 4.838 | 0.0733 |  |  | 
CS(=O)(=O)c1ccc(-c2cccc(NCc3cnoc3)n2)cc1 [Compound 136] | 5.1378 | 0.196 | 5.206 | 0.161 |  |  | 
Cn1cc(CNc2cncc(-c3ccc(S(C)(=O)=O)cc3)n2)cn1 [Compound 237] | 4.753 | 2.56 | 4.8121 | 2.23 |  |  | 
COc1ncc(NCc2cccs2)nc1-c1ccc(S(C)(=O)=O)cn1 [Compound 128] | 5.784 | 0.144 | 5.809 | 0.139 |  |  | 
CS(=O)(=O)c1ccc(-c2cncc(N3CCCCC3)n2)cc1 [Compound 262] | 3.643 | 4.57 | 3.693 | 4.04 |  | 3.59 | 5.13
CS(=O)(=O)c1ccc(-c2nc(NCc3cccs3)cnc2C(=O)O)cc1 [Compound 305] |  |  |  |  | 5.2 |  | 
CS(=O)(=O)c1ccc(-c2cnc(C(N)=O)c(NCc3cccs3)n2)cc1 [Compound 219] | 4.686 | 1.63 | 4.669 | 1.69 |  |  | 
COCc1ccc(NCc2cccs2)nc1-c1ccc(S(C)(=O)=O)cc1 [Compound 100] | 3.645 | 0.0839 | 3.594 | 0.106 |  |  | 
CS(=O)(=O)c1ccc(-c2ccc3c(ncn3Cc3cccs3)n2)cc1 [Compound 308] |  |  |  |  | 5.2 |  | 
CS(=O)(=O)c1ccc(-c2cncc(C#Cc3cccs3)n2)cc1 [Compound 320] |  |  |  |  | 5.2 |  | 
CS(=O)(=O)c1ccc(-c2ccc3c(n2)N(Cc2cccs2)C(=O)C3)cc1 [Compound 204] | 2.522 | 1.16 | 2.252 | 2.05 |  |  | 
CS(=O)(=O)c1ccc(-c2cncc(NCc3ccsc3)n2)cc1 [Compound 104] | 4.901 | 0.0911 | 4.97 | 0.0741 |  |  | 
Cn1ccc(CNc2cccc(-c3ccc(S(C)(=O)=O)cc3)n2)c1 [Compound 108] | 3.847 | 0.0945 | 3.926 | 0.0799 |  |  | 
CS(=O)(=O)c1ccc(-c2cncc(Oc3ccc(F)cc3)n2)cc1 [Compound 211] | 3.18 | 1.43 | 3.779 | 1.23 |  | 3.305 | 1.64
CS(=O)(=O)c1ccc(-c2cncc(NCc3ccc(F)cn3)n2)cc1 [Compound 221] | 4.887 | 1.69 | 4.735 | 2.69 |  | 4.836 | 1.96
CS(=O)(=O)c1ccc(-c2cncc(N3Cc4ccncc4C3)n2)cc1 [Compound 304] |  |  |  |  | 5.2 |  | 
